Inconclusive results are not listed.

The experiment relates to Drosophila SCA1 polyglutamine model, toxicity suppression. The experiment in a line: Drosophila SCA1 whole organism dose response for polyglutamine toxicity reduction (AID 1595).

With `C[N+](C)(C)CC(=O)[O-]`, the EC50 is 3000 nM.

For `Cc1cc(C(C)(C)C)cc(C)c1CC1=NCCN1`, the EC50 is 250 nM. On to `C[C@@H]1CC2C3CCC4=CC(=O)C=C[C@]4(C)[C@@]3(F)[C@@H](O)C[C@]2(C)[C@@]1(O)C(=O)COP(=O)(O)O` (some centres undefined), for which the half-maximal effective concentration (EC50) was 750 nM. In the case of `C[N+](C)(C)CCOC(N)=O` it was 3000 nM.

Consider `OCC(S)CS` (centres undefined), for which the EC50 is 300 nM. For the compound `CC(=O)OCC(=O)[C@H]1CCC2C3CCC4=CC(=O)CC[C@]4(C)C3CC[C@@]21C` (some centres undefined), the concentration for a half-maximal effect (EC50) is 3000 nM. In the case of `CN1CCOC(c2ccccc2)c2ccccc2C1` (centres undefined) it was 50 nM. In the case of `N#C/C(=C\c1ccc(O)cc1)C(=O)O` it was 50 nM. With `CC(N)CCCC(C)(C)O` (centres undefined), the half-maximal effective concentration (EC50) was 50 nM. `NC(Cc1cc(I)c(Oc2ccc(O)c(I)c2)c(I)c1)C(=O)O` (centres undefined): the EC50 was 5000 nM.

Turning to `C=C1C2CC[C@H]3[C@]4(C)C[C@H](OC5OC(CO)C(OS(=O)(=O)O)C(OS(=O)(=O)O)C5OC(=O)CC(C)C)C[C@@H](C(=O)O)[C@H]4CC[C@]3(C2)[C@H]1O` (some centres undefined), the 50% effective concentration (EC50) is 225 nM. As to `C[C@@H]1O[C@@H](O[C@H]2[C@H](Oc3cc(O)c4c(c3)O[C@H](c3ccc(O)cc3)CC4=O)O[C@H](CO)[C@@H](O)[C@@H]2O)[C@H](O)[C@H](O)[C@H]1O`, the concentration for a half-maximal effect (EC50) is 5000 nM. Consider `NS(=O)(=O)c1cc(C2(O)NC(=O)c3ccccc32)ccc1Cl` (centres undefined), for which the EC50 is 5000 nM. Consider `CCCCCCCCCCCCCCCC(=O)OC/C=C(C)/C=C/C=C(C)/C=C/C1=C(C)CCCC1(C)C`, for which the EC50 was 275 nM.

For the origin of these results see PubChem BioAssay AID1595 (NINDS Approved Drug Screening Program, 2009).
